One test has as its target CDK12/CycK (Homo sapiens, UniProt Q9NYV4). The test is described as follows: CDK12/CycK high ATP kinase assay (TR-FRET, 2 mM ATP). Type of test: biochemical. As to conditions: 2 mM ATP (high ATP); median; read-out: CDK12/CyclinK, 2 mM ATP (high ATP), IC50-[mol/l] (median). Summed up: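 Read-out is TR-FRET (Eu-anti-rabbit IgG, anti-phospho-c-Myc Ser62 antibody, streptavidin-XL665) after EDTA stop. Reaction ran 60 min at 22 °C using 1 µM biotin-peptide and high ATP (2 mM) with roughly 0.75 nM recombinant CDK12/CycK, after 15 min compound pre-binding; normalised emission ratios yield IC50.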
(In general: In TR-FRET formats the signal depends on donor and acceptor labels being close together.)

Test [1] has as its system BRCA1 mRNA expression in MDA-MB-231 cells. The test can be described thus: qRT-PCR assay: BRCA1 mRNA expression in MDA-MB-231. The class given is cell-based, human. Conditions: Homo sapiens, MDA-MB-231, Inhibition of BRCA1 mRNA expression in MDA-MB-231 cells; median; read-out: RTqPCR-MDA-MB-231, IC50, BRCA1 (median). The method in brief: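 Human breast cancer cells, 200,000/well, were treated with test agents for 24 h without interruption after a 24 h settling period. Gene expression came from qPCR on cDNA made from 600 ng RNA, relative to GAPDH.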
(Real-time PCR tracks product formation cycle by cycle.)

These results are taken from US20230117034A1, “PYRAZOLOTRIAZINES” (Bayer Aktiengesellschaft, priority 2019, published 2023).

Sequence of CDK12/CycK (Q9NYV4 with tags, fused parts or gaps): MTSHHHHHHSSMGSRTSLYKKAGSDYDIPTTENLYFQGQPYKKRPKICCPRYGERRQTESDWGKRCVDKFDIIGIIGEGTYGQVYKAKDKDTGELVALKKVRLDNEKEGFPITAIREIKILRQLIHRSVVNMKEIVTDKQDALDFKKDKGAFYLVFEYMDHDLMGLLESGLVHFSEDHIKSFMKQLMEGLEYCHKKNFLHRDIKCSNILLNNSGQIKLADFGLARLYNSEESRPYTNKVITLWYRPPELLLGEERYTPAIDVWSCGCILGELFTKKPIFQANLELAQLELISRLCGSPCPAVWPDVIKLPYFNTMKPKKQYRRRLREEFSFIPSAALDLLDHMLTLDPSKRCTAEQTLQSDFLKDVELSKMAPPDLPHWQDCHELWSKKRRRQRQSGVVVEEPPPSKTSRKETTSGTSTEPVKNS
Sequence of CDK12/CycK (O75909 1-300 partner limits assumed): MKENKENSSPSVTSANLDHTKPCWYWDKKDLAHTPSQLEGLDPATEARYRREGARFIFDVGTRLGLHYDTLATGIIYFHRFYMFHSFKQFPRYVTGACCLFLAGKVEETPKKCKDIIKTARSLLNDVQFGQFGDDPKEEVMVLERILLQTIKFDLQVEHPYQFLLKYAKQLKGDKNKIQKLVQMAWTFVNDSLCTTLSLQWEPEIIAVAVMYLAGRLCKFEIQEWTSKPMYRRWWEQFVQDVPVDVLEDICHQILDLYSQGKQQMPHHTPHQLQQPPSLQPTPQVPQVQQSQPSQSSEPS

With `CN(CC(C)(C)O)c1nc(NCc2nc3cc(F)c(F)cc3[nH]2)n2ncc(C3CC3)c2n1` [Example 319, 1-[(8-cyclopropyl-4-{[(5,6-difluoro-1H-benzimidazol-2-yl)methyl]amino}pyrazolo[1,5-a][1,3,5]triazin-2-yl)(methyl)amino]-2-methylpropan-2-ol], the IC50 at CDK12/CycK stood at 2380 nM; in test [1] it was 9.97 nM.

In the case of `CN(CC(C)(C)O)c1nc(NCc2nc3cc(F)c(Cl)cc3[nH]2)n2ncc(Br)c2n1` [Example 338, 1-[(8-bromo-4-{[(6-chloro-5-fluoro-1H-benzimidazol-2-yl)methyl]amino}pyrazolo[1,5-a][1,3,5]triazin-2-yl)(methyl)amino]-2-methylpropan-2-ol], the IC50 turned out to be 1180 nM at CDK12/CycK and 1.3 nM in test [1].

As to `Brc1cnn2c(NCc3nc4ccccc4[nH]3)nc(N3CC4CCC(C3)O4)nc12` [Example 351, N-[(1H-benzimidazol-2-yl)methyl]-8-bromo-2-(8-oxa-3-azabicyclo[3.2.1]octan-3-yl)pyrazolo[1,5-a][1,3,5]triazin-4-amine], the IC50 at CDK12/CycK is 9350 nM; in test [1], 61.6 nM.

For the compound `CN(CC(C)(C)O)c1nc(NCc2nc3cc(F)c(F)cc3[nH]2)n2ncc(Br)c2n1` [Example 347], the IC50 at CDK12/CycK was determined as 2180 nM; in test [1], 2.04 nM.

With `CN1CCN(c2nc(NCc3nc4c(F)c(F)ccc4[nH]3)n3ncc(Cl)c3n2)CC1` [Example 358, 8-chloro-N-[(4,5-difluoro-1H-benzimidazol-2-yl)methyl]-2-(4-methylpiperazin-1-yl)pyrazolo[1,5-a][1,3,5]triazin-4-amine], the IC50 turned out to be 11600 nM at CDK12/CycK and 3.87 nM in test [1].

Turning to `Cc1cc2nc(CNc3nc(N(C)CC(C)(C)O)nc4c(Br)cnn34)[nH]c2cc1C` [Example 343, 1-[(8-bromo-4-{[(5,6-dimethyl-1H-benzimidazol-2-yl)methyl]amino}pyrazolo[1,5-a][1,3,5]triazin-2-yl)(methyl)amino]-2-methylpropan-2-ol], the IC50 was found to be 188 nM on CDK12/CycK and 1.91 nM in test [1].

Turning to `CCNc1nc(NCc2nc(-c3ccc(C)cc3)c[nH]2)n2ncc(Br)c2n1` [Example 26, 8-bromo-N^2-ethyl-N^4-{[4-(4-methylphenyl)-1H-imidazol-2-yl]methyl}pyrazolo[1,5-a][1,3,5]triazine-2,4-diamine], the IC50 at CDK12/CycK came to 3210 nM; in test [1], 74.4 nM.

As for `Cc1ccnc2[nH]c(CNc3nc(N4CCN(C)CC4)nc4c(C(C)C)cnn34)nc12` [Example 32, N-[(7-methyl-3H-imidazo[4,5-b]pyridin-2-yl)methyl]-2-(4-methylpiperazin-1-yl)-8-(propan-2-yl)pyrazolo[1,5-a][1,3,5]triazin-4-amine], at CDK12/CycK, the IC50 is 18500 nM.

`CC[C@H](COC)Nc1nc(NCc2nc3ccccc3[nH]2)n2ncc(Br)c2n1` [Example 369, N4-[(1H-benzimidazol-2-yl)methyl]-8-bromo-N2-[(2R)-1-methoxybutan-2-yl]pyrazolo[1,5-a][1,3,5]triazine-2,4-diamine]: the IC50 at CDK12/CycK was above 20000 nM.

As for `Fc1cccc2[nH]c(CNc3nc(N4CC5CCC(C4)N5)nc4c(Cl)cnn34)nc12` [Example 363, 8-chloro-2-(3,8-diazabicyclo[3.2.1]octan-3-yl)-N-[(4-fluoro-1H-benzimidazol-2-yl)methyl]pyrazolo[1,5-a][1,3,5]triazin-4-amine], the IC50 worked out at 3310 nM on CDK12/CycK and 22.5 nM in test [1].

On to `Cc1cc2nc(CNc3nc(N4CCN(C)CC4)nc4c(Br)cnn34)[nH]c2cc1C` [Example 342, 8-bromo-N-[(5,6-dimethyl-1H-benzimidazol-2-yl)methyl]-2-(4-methylpiperazin-1-yl)pyrazolo[1,5-a][1,3,5]triazin-4-amine], for which the IC50 on CDK12/CycK was 6650 nM; in test [1] it was 1.27 nM.

On to `Cc1[nH]c(CNc2nc(N3CCOCC3)nc3c(Br)cnn23)nc1-c1ccccc1` [Example 27, 8-bromo-N-[(5-methyl-4-phenyl-1H-imidazol-2-yl)methyl]-2-(morpholin-4-yl)pyrazolo[1,5-a][1,3,5]triazin-4-amine], for which the values for the IC50 (at CDK12/CycK; in test [1]) were 3480 nM and 165 nM, respectively.

In the case of `CN1C2CCC1CN(c1nc(NCc3nc4c(F)cccc4[nH]3)n3ncc(C(F)(F)F)c3n1)C2` [Example 384, N-[(4-fluoro-1H-benzimidazol-2-yl)methyl]-2-(8-methyl-3,8-diazabicyclo[3.2.1]octan-3-yl)-8-(trifluoromethyl)pyrazolo[1,5-a][1,3,5]triazin-4-amine], the IC50 at CDK12/CycK was determined as 8110 nM; in test [1], 13.6 nM.

On to `FC(F)(F)c1ccc2[nH]c(CNc3nc(N4CC5CCC(C4)N5)nc4c(Br)cnn34)nc2c1` [Example 354, 8-bromo-2-(3,8-diazabicyclo[3.2.1]octan-3-yl)-N-{[5-(trifluoromethyl)-1H-benzimidazol-2-yl]methyl}pyrazolo[1,5-a][1,3,5]triazin-4-amine], for which the IC50 on CDK12/CycK is 3740 nM; in test [1], below 100 nM.

Take `FC(F)(F)c1cnn2c(NCc3nc4cc(Cl)c(Cl)cc4[nH]3)nc(N3CCOCC3)nc12` [Example 332, N-[(5,6-dichloro-1H-benzimidazol-2-yl)methyl]-2-(morpholin-4-yl)-8-(trifluoromethyl)pyrazolo[1,5-a][1,3,5]triazin-4-amine]: the values for the IC50 (on CDK12/CycK; in test [1]) were 190 nM and 3.78 nM, respectively.

Regarding `Brc1cnn2c(NCc3nc4ccccc4[nH]3)nc(N3CCN4CCC3C4)nc12` (stereo not drawn) [Example 350, N-[(1H-benzimidazol-2-yl)methyl]-8-bromo-2-(1,4-diazabicyclo[3.2.1]octan-4-yl)pyrazolo[1,5-a][1,3,5]triazin-4-amine], the IC50 on CDK12/CycK was determined as 7800 nM; in test [1], 13.7 nM.

In the case of `Brc1cnn2c(NCc3nc4ccccc4[nH]3)nc(N3C[C@H]4CC[C@@H]3CO4)nc12` (single isomer, unassigned) [Example 383, N-[(1H-benzimidazol-2-yl)methyl]-8-bromo-2-{[1R or S-(1R*,4R*)]-2-oxa-5-azabicyclo[2.2.2]octan-5-yl}pyrazolo[1,5-a][1,3,5]triazin-4-amine], the IC50 was 4970 nM on CDK12/CycK and 4.01 nM in test [1].

As for `CC[C@@H](CO)Nc1nc(NCc2nc3ccccc3[nH]2)n2ncc(Br)c2n1` [Example 367, (2S)-2-[(4-{[(1H-benzimidazol-2-yl)methyl]amino}-8-bromopyrazolo[1,5-a][1,3,5]triazin-2-yl)amino]butan-1-ol], the IC50 at CDK12/CycK was 2930 nM.

Take `CN(CC(C)(C)O)c1nc(NCc2nc3cc(OC(F)(F)F)ccc3[nH]2)n2ncc(Br)c2n1` [Example 378, 1-{[8-bromo-4-({[5-(trifluoromethoxy)-1H-benzimidazol-2-yl]methyl}amino)pyrazolo[1,5-a][1,3,5]triazin-2-yl](methyl)amino}-2-methylpropan-2-ol]: on CDK12/CycK, the IC50 was 440 nM.

Take `CN1CCN(c2nc(NCc3nc4cc(OC(F)(F)F)ccc4[nH]3)n3ncc(Br)c3n2)CC1` [Example 377, 8-bromo-2-(4-methylpiperazin-1-yl)-N-{[5-(trifluoromethoxy)-1H-benzimidazol-2-yl]methyl}pyrazolo[1,5-a][1,3,5]triazin-4-amine]: the IC50 at CDK12/CycK stood at 5090 nM.

Turning to `CN1CCC(Oc2nc(NCc3nc4ccccc4[nH]3)n3ncc(Br)c3n2)CC1` [Example 389, N-[(1H-benzimidazol-2-yl)methyl]-8-bromo-2-[(1-methylpiperidin-4-yl)oxy]pyrazolo[1,5-a][1,3,5]triazin-4-amine], the IC50 on CDK12/CycK is above 20000 nM.

In the case of `FC(F)(F)Oc1cccc2[nH]c(CNc3nc(N4C[C@H]5CC[C@@H](C4)N5)nc4c(Br)cnn34)nc12` [Example 381, 8-bromo-2-[(1R,5S)-3,8-diazabicyclo[3.2.1]octan-3-yl]-N-{[4-(trifluoromethoxy)-1H-benzimidazol-2-yl]methyl}pyrazolo[1,5-a][1,3,5]triazin-4-amine], at CDK12/CycK, the IC50 was determined as 5910 nM.

For `CN1CCN(c2nc(NCc3nc4c(OC(F)(F)F)cccc4[nH]3)n3ncc(Br)c3n2)CC1` [Example 376, 8-bromo-2-(4-methylpiperazin-1-yl)-N-{[4-(trifluoromethoxy)-1H-benzimidazol-2-yl]methyl}pyrazolo[1,5-a][1,3,5]triazin-4-amine], the IC50 on CDK12/CycK is above 20000 nM.

As to `FC(F)(F)Oc1cccc2[nH]c(CNc3nc(N4CCOCC4)nc4c(Br)cnn34)nc12` [Example 375, 8-bromo-2-(morpholin-4-yl)-N-{[4-(trifluoromethoxy)-1H-benzimidazol-2-yl]methyl}pyrazolo[1,5-a][1,3,5]triazin-4-amine], the IC50 at CDK12/CycK amounted to 4560 nM.

As for `CC[C@H](CO)Nc1nc(NCc2nc3ccccc3[nH]2)n2ncc(Br)c2n1` [Example 368, (2R)-2-[(4-{[(1H-benzimidazol-2-yl)methyl]amino}-8-bromopyrazolo[1,5-a][1,3,5]triazin-2-yl)amino]butan-1-ol], the IC50 on CDK12/CycK stood at 4840 nM.

For the compound `CN1CCCN(c2nc(NCc3nc4ccccc4[nH]3)n3ncc(Br)c3n2)CC1` [Example 390, N-[(1H-benzimidazol-2-yl)methyl]-8-bromo-2-(4-methyl-1,4-diazepan-1-yl)pyrazolo[1,5-a][1,3,5]triazin-4-amine], the IC50 at CDK12/CycK is above 20000 nM.

For the compound `CN(c1nc(NCc2nc3ccccc3[nH]2)n2ncc(Br)c2n1)[C@H]1C[C@H](O)C1` [Example 365, trans-3-[(4-{[(1H-benzimidazol-2-yl)methyl]amino}-8-bromopyrazolo[1,5-a][1,3,5]triazin-2-yl)(methyl)amino]cyclobutan-1-ol], at CDK12/CycK, the IC50 was 5850 nM.
